Activity calls are given as the source filed them. The calls are words filed in the database; no cut-off is given here. *1 amine or outer side, *2 acyl side, *3 side chain or, on linkers, in order; H or OH if unused. Where a SMILES comes first, the peptide text is derived from it. Bridges are numbered along the chain shown (N, C = ends). Roman numbers before positions name the chains, in order. [ ]: non-standard residue; d: D form. Actinocin(1to9) = Cc1c2oc3c(C)ccc(C(=O)[*:2])c3nc-2c(C(=O)[*:1])c(N)c1=O; NMeV = CN[C@H](C(=O)O)C(C)C; Sar = CNCC(=O)O
How the values were obtained:
A549 [1] = assay: Cytotoxicity against human A549 cells after 20 hrs by SRB assay; assay type: functional, cell-based; settings: A549, 20 h
U-937 = assay: Cytotoxicity against human U937 cells after 20 hrs by MTS assay; assay type: functional, cell-based; settings: U-937, 20 h
Vero = assay: Cytotoxicity against african green monkey Vero cells after 20 hrs by MTS assay; assay type: cell-based; settings: Chlorocebus sabaeus
THP-1 = assay: Cytotoxicity against human THP1 cells after 20 hrs by MTS assay; assay type: functional, cell-based; settings: THP-1, 20 h
HeLa = assay: Cytotoxicity against human HeLa cells after 20 hrs by MTS assay; assay type: functional, cell-based
MOLT-3 = assay: Cytotoxicity against human MOLT3 cells after 20 hrs by MTS assay; assay type: functional, cell-based; settings: MOLT-3, 20 h
Nucleic Acid [2] = assay: Binding affinity to Escherichia coli supercoiled phiX174 RF1 DNA assessed as DNA unwinding in presence of topoisomerase 1 after 30 mins by agarose gel electrophoresis; assay type: nucleic-acid assay
Nucleic Acid [3] = assay: Binding affinity to poly-d(AT)2 DNA by UV titration analysis; assay type: nucleic-acid assay
Nucleic Acid [4] = assay: Binding affinity to polyd(GC)2 DNA by UV titration analysis; assay type: nucleic-acid assay
Nucleic Acid [5] = assay: Binding affinity to calf thymus DNA by UV titration analysis; assay type: nucleic-acid assay; settings: Bos taurus
A549 [6] = assay: Cytotoxicity against human A549 cells assessed as reduction of cell number at 0.5 ug/ml after 8 hrs relative to control; assay type: functional; set-up: scale not given: the % may be the effect or the level left

`CN(C)C(=O)[C@H]1C[C@H](c2cc3ccccc3c3ccccc23)N(C)O1` was tested, and the IC50 (A549 [1]) was 68 µM, the IC50 (U-937) was 98 µM and the IC50 (Vero) was 160 µM. For the same compound, the IC50 (THP-1) was 95 µM, the IC50 (HeLa) was 86 µM and the IC50 (MOLT-3) was 105 µM.
`CN(C)C(=O)C1CC(c2cc3ccccc3c3ccccc23)=NO1` (configuration not stated) was tested, and the IC50 (A549 [1]) was 435 µM, the IC50 (U-937) was greater than 500 µM and the IC50 (Vero) was greater than 500 µM. It also gave an IC50 (THP-1) greater than 500 µM, an IC50 (HeLa) of 401 µM and an IC50 (MOLT-3) greater than 500 µM.
`CN(C)C(=O)C1CC(c2ccc3ccc4cccc5ccc2c3c45)=NO1` (configuration not stated) showed an IC50 (A549 [1]) of 49 µM, an IC50 (U-937) of 194 µM and an IC50 (Vero) of 160 µM. It also gave an IC50 (THP-1) of 69 µM, an IC50 (HeLa) of 69 µM and an IC50 (MOLT-3) of 65 µM.
Compound `CN(C)C(=O)c1cc(-c2cc3ccccc3c3ccccc23)no1` has an IC50 (A549 [1]) of 335 µM, an IC50 (U-937) greater than 500 µM and an IC50 (Vero) greater than 500 µM. It also gave an IC50 (THP-1) of 403 µM, an IC50 (HeLa) of 290 µM and an IC50 (MOLT-3) of 420 µM.
`CN(C)C(=O)c1cc(-c2ccc3ccc4cccc5ccc2c3c45)no1` was tested, and the IC50 (A549 [1]) was 60 µM, the IC50 (U-937) was 202 µM and the IC50 (Vero) was 165 µM. For the same compound, the IC50 (THP-1) was 78 µM, the IC50 (HeLa) was 71 µM and the IC50 (MOLT-3) was 73 µM.
`CN(C)C(=O)[C@@H]1CON(C)[C@H]1c1ccc2ccc3cccc4ccc1c2c34` (racemic) gave an IC50 (A549 [1]) of 44 µM, an IC50 (U-937) of 185 µM and an IC50 (Vero) of 143 µM. It also gave an IC50 (THP-1) of 61 µM, an IC50 (HeLa) of 65 µM and an IC50 (MOLT-3) of 59 µM.
`CN(C)C(=O)[C@H]1CON(Cc2ccccc2)[C@H]1c1ccc2ccc3cccc4ccc1c2c34` (racemic) was tested, and the IC50 (A549 [1]) was 63 µM, the IC50 (U-937) was 102 µM and the IC50 (Vero) was 151 µM. It also gave an IC50 (THP-1) of 93 µM, an IC50 (HeLa) of 79 µM and an IC50 (MOLT-3) of 100 µM.
`CN(C)C(=O)[C@@H]1C[C@H](c2ccc3ccc4cccc5ccc2c3c45)N(C)O1` (racemic) gave an IC50 (A549 [1]) of 55 µM, an IC50 (U-937) of 199 µM and an IC50 (Vero) of 163 µM. For the same compound, the IC50 (THP-1) was 75 µM, the IC50 (HeLa) was 75 µM and the IC50 (MOLT-3) was 69 µM.
`CN(C)C(=O)[C@H]1C[C@H](c2ccc3ccc4cccc5ccc2c3c45)N(Cc2ccccc2)O1` (racemic) gave an IC50 (A549 [1]) of 4 µM, an IC50 (U-937) of 37 µM and an IC50 (Vero) of 42 µM. For the same compound, the Activity (Nucleic Acid [2]) was “Active”, the IC50 (THP-1) was 6 µM and the IC50 (HeLa) was 5 µM. It also gave an IC50 (MOLT-3) of 6 µM, a Kb (Nucleic Acid [3]) of 1.6 ×10⁵ /M and a Kb (Nucleic Acid [4]) of 0.3 ×10⁵ /M. For the same compound, the Kb (Nucleic Acid [5]) was 1.7 ×10⁵ /M.
For `CN(C)C(=O)[C@H]1C[C@H](c2ccc3ccc4cccc5ccc2c3c45)N(C)O1` (racemic), the IC50 (A549 [1]) was 41 µM, the IC50 (U-937) was 165 µM and the IC50 (Vero) was 141 µM. The IC50 (THP-1) was 60 µM, the IC50 (HeLa) was 63 µM and the IC50 (MOLT-3) was 52 µM.
`CN(C)C(=O)[C@H]1C[C@H](c2cc3ccccc3c3ccccc23)N(Cc2ccccc2)O1` (racemic) was tested, and the IC50 (A549 [1]) was 10 µM, the IC50 (U-937) was 100 µM and the IC50 (Vero) was 115 µM. The IC50 (THP-1) was 17 µM, the IC50 (HeLa) was 14 µM and the IC50 (MOLT-3) was 15 µM.
In the case of `CN1O[C@H](CO)C[C@@H]1c1ccc2ccc3cccc4ccc1c2c34` (relative stereo), the Kb (Nucleic Acid [5]) is reported as 6.8 ×10³ /M.
`Cc1c2oc3c(C)ccc(C(=O)N[C@@H]4C(=O)N[C@H](C(C)C)C(=O)N5CCC[C@H]5C(=O)N(C)CC(=O)N(C)[C@@H](C(C)C)C(=O)O[C@@H]4C)c3nc-2c(C(=O)N[C@@H]2C(=O)N[C@H](C(C)C)C(=O)N3CCC[C@H]3C(=O)N(C)CC(=O)N(C)[C@@H](C(C)C)C(=O)O[C@@H]2C)c(N)c1=O` [DACTINOMYCIN] (I: T[dV]P[Sar][NMeV] / II: T[dV]P[Sar][NMeV]; ester I:1-I:C, II:1-II:C; linker I:N-II:N via Actinocin(1to9)) was tested, and the Activity (A549 [6]) was 40%.
